Key:
[1] = tested on: barnyardgrass; test: Test A pre-/postemergence herbicide test; format: in vivo, Echinochloa crus-galli
Procedure, shortened: (§1)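 Seeds sown in loam soil/sand blend received a preemergence directed soil spray of test chemical in non-phytotoxic solvent with surfactant; postemergence plants (2–10 cm, one- to two-leaf stage) were sprayed with the same formulation. After about 10 days in greenhouse, injury was rated visually versus untreated controls, 0 (no effect) to 100 (complete control).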

[2] = tested on: kochia; test: Test A pre-/postemergence herbicide test; format: in vivo, Kochia scoparia; details: for Plant response rating, Kochia: 0 to 100 scale
Procedure, shortened: as §1

[3] = tested on: ragweed; test: Test A pre-/postemergence herbicide test; format: in vivo, Ambrosia elatior; details: for Plant response rating, Ragweed: 0 to 100 scale
Procedure, shortened: as §1

[4] = tested on: ryegrass, Italian; test: Test A pre-/postemergence herbicide test; format: in vivo, Lolium multiflorum; details: for Plant response rating, Ryegrass, Italian: 0 to 100 scale
Procedure, shortened: as §1

[5] = tested on: giant foxtail; test: Test A pre-/postemergence herbicide test; format: in vivo, Setaria faberii; details: for Plant response rating, Foxtail, Giant: 0 to 100 scale
Procedure, shortened: as §1

[6] = tested on: pigweed; test: Test A pre-/postemergence herbicide test; format: in vivo, Amaranthus retroflexus; details: for Plant response rating, Pigweed: 0 to 100 scale
Procedure, shortened: as §1

[7] = tested on: wheat; test: Test A pre-/postemergence herbicide test; format: in vivo, Triticum aestivum; details: Postemergence; for Plant response rating, Wheat: 125 g ai/ha, 0 to 100 scale; for Wheat plant response rating (0 to 100 scale, 0 is no effect, 100 is complete control): 500 g ai/ha
Procedure, shortened: as §1

[8] = tested on: corn; test: Test A pre-/postemergence herbicide test; format: in vivo, Zea mays; details: Postemergence
Procedure, shortened: as §1

[9] = tested on: blackgrass; test: Test A postemergence herbicide test; format: in vivo, Alopecurus myosuroides
Procedure, shortened: (§2)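 Plants at the one- to two-leaf stage, 2–10 cm tall, grown in loam/sand pots, received postemergence sprays of the test chemicals. After about 10 days in the greenhouse, injury was scored visually against untreated controls on a 0–100 scale (0 none, 100 complete control).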

[10] = tested on: galium; test: Test A postemergence herbicide test; format: in vivo, Galium aparine; details: for Plant response rating, Galium: 125 g ai/ha, 0 to 100 scale; for Galium plant response rating (0 to 100 scale, 0 is no effect, 100 is complete control): 500 g ai/ha
Procedure, shortened: as §2

[11] = tested on: rice; test: Test B flooded paddy test; format: in vivo, Oryza sativa; details: Flood, scale of 0 to 100 where 0 is no effect and 100 is complete control
Procedure, shortened: (§3)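 Scored visually 0–100 (0 no effect, 100 complete control) versus controls after 13 to 15 greenhouse days. Treatment: compound added to paddy water kept 3 cm above soil, on 2-leaf-stage plants.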

[12] = tested on: sedge, umbrella; test: Test B flooded paddy test; format: in vivo, Cyperus difformis; details: Flood, scale of 0 to 100 where 0 is no effect and 100 is complete control
Procedure, shortened: as §3

[13] = tested on: ducksalad; test: Test B flooded paddy test; format: in vivo, Heteranthera limosa; details: Flood, scale of 0 to 100 where 0 is no effect and 100 is complete control
Procedure, shortened: as §3

[14] = tested on: barnyardgrass; test: Test B flooded paddy test; format: in vivo, Echinochloa crus-galli; details: Flood, scale of 0 to 100 where 0 is no effect and 100 is complete control
Procedure, shortened: as §3

[15] = 125 g ai/ha, visual rating, 0 to 100 scale, 0 no effect, 100 complete control, approximately 10 days, preemergence
[16] = 125 g ai/ha, visual rating, 0 no effect, 100 complete control, approximately 10 days, preemergence
[17] = Postemergence, 125 g ai/ha, 0 is no effect, 100 is complete control
[18] = preemergence, 500 g ai/ha, 0 is no effect and 100 is complete control
[19] = 0 is no effect, 100 is complete control
[20] = 125 g ai/ha, 0 to 100 scale, 0 is no effect, 100 is complete control
[21] = Postemergence, 125 g ai/ha, 0 no effect, 100 complete control
[22] = 0 no effect, 100 complete control
[23] = 125 g ai/ha, 0 to 100 scale, 0 no effect, 100 complete control
[24] = 500 g ai/ha, 0 to 100 scale (0 no effect, 100 complete control)

## CC(C)(C)c1cccc(C2CNC(=O)C2C(=O)Nc2ccccc2C(F)(F)F)c1 (racemic) [Compound 201]
[1]; [15]
  Plant response rating, Barnyardgrass: 0
[1]; Postemergence, 125 g ai/ha, 0 to 100 scale, 0 is no effect, 100 is complete control
  Plant response rating, Barnyardgrass: 0
[1]; Postemergence, 500 g ai/ha
  Barnyardgrass plant response rating (0 to 100 scale, 0 is no effect, 100 is complete control): 30
[1]; preemergence, 500 g ai/ha, 0 to 100 scale, 0 is no effect and 100 is complete control
  Plant response rating, Barnyardgrass: 20
[2]; [16]
  Plant response rating, Kochia: 0
[2]; [17]
  Plant response rating, Kochia: 0
[2]; Postemergence, 500 g ai/ha
  Kochia plant response rating (0 to 100 scale, 0 is no effect, 100 is complete control): 0
[2]; [18]
  Plant response rating, Kochia: 0
[3]; [16]
  Plant response rating, Ragweed: 0
[3]; [17]
  Plant response rating, Ragweed: 0
[3]; Postemergence, 500 g ai/ha
  Ragweed plant response rating (0 to 100 scale, 0 is no effect, 100 is complete control): 0
[3]; [18]
  Plant response rating, Ragweed: 0
[4]; [16]
  Plant response rating, Ryegrass, Italian: 0
[4]; [17]
  Plant response rating, Ryegrass, Italian: 0
[4]; Postemergence, 500 g ai/ha
  Ryegrass, Italian plant response rating (0 to 100 scale, 0 is no effect, 100 is complete control): 0
[4]; [18]
  Plant response rating, Ryegrass, Italian: 0
[5]; [16]
  Plant response rating, Foxtail, Giant: 20
[5]; [17]
  Plant response rating, Foxtail, Giant: 0
[5]; Postemergence, 500 g ai/ha
  Foxtail, Giant plant response rating (0 to 100 scale, 0 is no effect, 100 is complete control): 0
[5]; [18]
  Plant response rating, Foxtail, Giant: 30
[6]; [16]
  Plant response rating, Pigweed: 0
[6]; [17]
  Plant response rating, Pigweed: 0
[6]; Postemergence, 500 g ai/ha
  Pigweed plant response rating (0 to 100 scale, 0 is no effect, 100 is complete control): 0
[6]; [18]
  Plant response rating, Pigweed: 0
[7]; [19]
  Plant response rating, Wheat: 0
[7]
  Wheat plant response rating (0 to 100 scale, 0 is no effect, 100 is complete control): 0
[8]; [20]
  Plant response rating, Corn: 0
[8]; 500 g ai/ha
  Corn plant response rating (0 to 100 scale, 0 is no effect, 100 is complete control): 0
[9]; [20]
  Plant response rating, Blackgrass: 0
[9]; 500 g ai/ha
  Blackgrass plant response rating (0 to 100 scale, 0 is no effect, 100 is complete control): 0
[10]; [19]
  Plant response rating, Galium: 0
[10]
  Galium plant response rating (0 to 100 scale, 0 is no effect, 100 is complete control): 0
[11]; 1000 g ai/ha
  Plant response rating, Rice: 0
[12]; 1000 g ai/ha
  Plant response rating, Sedge, Umbrella: 0
[13]; 1000 g ai/ha
  Plant response rating, Ducksalad: 70
[14]; 1000 g ai/ha
  Plant response rating, Barnyardgrass: 20

## O=C1NCC(c2cccc(OC(F)(F)C(F)F)c2)C1C(=O)Nc1ccccc1F (racemic) [Compound 121]
[1]; [15]
  Plant response rating, Barnyardgrass: 80
[1]; Postemergence, 125 g ai/ha, 0 to 100 scale, 0 no effect, 100 complete control
  Plant response rating, Barnyardgrass: 70
[1]; Postemergence, 500 g ai/ha, 0 to 100 scale (0 no effect, 100 complete control)
  Plant response rating, Barnyardgrass: 80
[1]; preemergence, 500 g ai/ha, 0 to 100 scale (0 no effect, 100 complete control)
  Plant response rating, Barnyardgrass: 90
[2]; [16]
  Plant response rating, Kochia: 60
[2]; [21]
  Plant response rating, Kochia: 50
[2]; Postemergence, 500 g ai/ha
  Kochia plant response rating (0 to 100 scale, 0 is no effect, 100 is complete control): 60
[2]; preemergence, 500 g ai/ha
  Plant response rating, Kochia: 70
[3]; [16]
  Plant response rating, Ragweed: 70
[3]; [21]
  Plant response rating, Ragweed: 0
[3]; Postemergence, 500 g ai/ha
  Ragweed plant response rating (0 to 100 scale, 0 is no effect, 100 is complete control): 30
[3]; preemergence, 500 g ai/ha
  Plant response rating, Ragweed: 70
[4]; [16]
  Plant response rating, Ryegrass, Italian: 0
[4]; [21]
  Plant response rating, Ryegrass, Italian: 40
[4]; Postemergence, 500 g ai/ha
  Ryegrass, Italian plant response rating (0 to 100 scale, 0 is no effect, 100 is complete control): 50
[4]; preemergence, 500 g ai/ha
  Plant response rating, Ryegrass, Italian: 0
[5]; [16]
  Plant response rating, Foxtail, Giant: 90
[5]; [21]
  Plant response rating, Foxtail, Giant: 80
[5]; Postemergence, 500 g ai/ha
  Foxtail, Giant plant response rating (0 to 100 scale, 0 is no effect, 100 is complete control): 90
[5]; preemergence, 500 g ai/ha
  Plant response rating, Foxtail, Giant: 90
[6]; [16]
  Plant response rating, Pigweed: 50
[6]; [21]
  Plant response rating, Pigweed: 0
[6]; Postemergence, 500 g ai/ha
  Pigweed plant response rating (0 to 100 scale, 0 is no effect, 100 is complete control): 0
[6]; preemergence, 500 g ai/ha
  Plant response rating, Pigweed: 70
[7]; [22]
  Plant response rating, Wheat: 50
[7]
  Wheat plant response rating (0 to 100 scale, 0 is no effect, 100 is complete control): 60
[8]; [23]
  Plant response rating, Corn: 50
[8]; [24]
  Plant response rating, Corn: 70
[9]; [23]
  Plant response rating, Blackgrass: 60
[9]; [24]
  Plant response rating, Blackgrass: 70
[10]; [22]
  Plant response rating, Galium: 60
[10]
  Galium plant response rating (0 to 100 scale, 0 is no effect, 100 is complete control): 70
[11]; 500 g ai/ha
  Plant response rating, Rice: 35
[12]; 500 g ai/ha
  Plant response rating, Sedge, Umbrella: 0
[13]; 500 g ai/ha
  Plant response rating, Ducksalad: 100
[14]; 500 g ai/ha
  Plant response rating, Barnyardgrass: 70

Source: patent publication US10294202B2, “Pyrrolidinones as herbicides” (FMC Corporation, priority 2013, dated 2019)
